This note sets out measurements from patent US8952034B2, “Fused heterocyclic compounds as ion channel modulators” (Gilead Sciences, Inc., priority 2009, dated 2015).

SMILES strings stand for the structures.

Chain of wild-type human cardiac sodium channel, hNav1.5 (Q14524 whole entry): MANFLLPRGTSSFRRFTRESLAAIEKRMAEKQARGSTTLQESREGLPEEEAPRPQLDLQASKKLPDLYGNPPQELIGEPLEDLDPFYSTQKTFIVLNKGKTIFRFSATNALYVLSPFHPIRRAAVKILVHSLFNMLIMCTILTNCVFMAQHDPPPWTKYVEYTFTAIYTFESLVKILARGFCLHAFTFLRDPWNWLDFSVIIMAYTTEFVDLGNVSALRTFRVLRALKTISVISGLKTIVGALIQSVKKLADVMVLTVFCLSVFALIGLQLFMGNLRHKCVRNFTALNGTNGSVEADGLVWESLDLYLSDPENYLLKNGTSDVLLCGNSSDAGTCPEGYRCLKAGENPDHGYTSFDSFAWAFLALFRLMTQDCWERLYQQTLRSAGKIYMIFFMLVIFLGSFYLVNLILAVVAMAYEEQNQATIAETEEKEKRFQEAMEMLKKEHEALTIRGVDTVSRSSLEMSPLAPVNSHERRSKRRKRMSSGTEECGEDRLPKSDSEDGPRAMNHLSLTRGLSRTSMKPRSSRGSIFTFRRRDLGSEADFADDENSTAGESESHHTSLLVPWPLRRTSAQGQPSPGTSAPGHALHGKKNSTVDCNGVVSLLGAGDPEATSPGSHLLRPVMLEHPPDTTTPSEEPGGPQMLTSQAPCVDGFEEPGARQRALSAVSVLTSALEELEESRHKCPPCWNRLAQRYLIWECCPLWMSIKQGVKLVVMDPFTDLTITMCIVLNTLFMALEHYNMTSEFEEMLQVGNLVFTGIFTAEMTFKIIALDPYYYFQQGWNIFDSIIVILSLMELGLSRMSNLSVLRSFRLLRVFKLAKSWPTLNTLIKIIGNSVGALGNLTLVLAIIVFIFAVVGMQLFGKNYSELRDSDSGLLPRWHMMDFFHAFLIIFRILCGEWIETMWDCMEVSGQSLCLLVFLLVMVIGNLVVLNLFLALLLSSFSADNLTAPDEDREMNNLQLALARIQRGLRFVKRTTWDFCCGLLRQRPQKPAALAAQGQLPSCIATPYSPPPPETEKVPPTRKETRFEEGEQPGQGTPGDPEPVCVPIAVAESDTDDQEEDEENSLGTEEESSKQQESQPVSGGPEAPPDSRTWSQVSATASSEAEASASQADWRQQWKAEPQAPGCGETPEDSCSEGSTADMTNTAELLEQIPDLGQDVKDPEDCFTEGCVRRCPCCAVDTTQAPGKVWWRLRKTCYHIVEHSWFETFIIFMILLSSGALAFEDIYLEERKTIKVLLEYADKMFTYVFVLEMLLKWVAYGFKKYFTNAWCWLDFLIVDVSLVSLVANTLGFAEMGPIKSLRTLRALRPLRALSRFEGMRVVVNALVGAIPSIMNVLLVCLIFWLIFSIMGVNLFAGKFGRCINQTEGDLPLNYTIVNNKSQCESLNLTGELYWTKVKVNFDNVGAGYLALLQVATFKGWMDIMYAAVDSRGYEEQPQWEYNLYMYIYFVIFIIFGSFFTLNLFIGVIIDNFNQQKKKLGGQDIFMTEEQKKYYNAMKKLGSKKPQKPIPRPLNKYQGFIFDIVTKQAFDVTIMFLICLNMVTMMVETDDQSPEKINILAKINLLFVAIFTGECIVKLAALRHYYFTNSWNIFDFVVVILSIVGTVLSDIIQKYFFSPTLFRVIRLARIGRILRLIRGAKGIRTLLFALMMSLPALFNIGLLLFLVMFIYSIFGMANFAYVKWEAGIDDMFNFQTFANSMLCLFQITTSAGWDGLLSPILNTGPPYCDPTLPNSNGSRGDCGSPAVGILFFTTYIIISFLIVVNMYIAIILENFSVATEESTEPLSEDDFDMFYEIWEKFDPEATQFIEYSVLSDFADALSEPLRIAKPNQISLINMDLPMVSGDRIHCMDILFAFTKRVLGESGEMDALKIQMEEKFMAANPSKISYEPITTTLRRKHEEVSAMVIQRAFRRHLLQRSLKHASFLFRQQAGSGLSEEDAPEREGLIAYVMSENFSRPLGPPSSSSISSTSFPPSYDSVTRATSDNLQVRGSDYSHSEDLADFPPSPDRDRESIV

The first assay addresses wild-type human cardiac sodium channel, hNav1.5 (Homo sapiens, UniProt Q14524). Put plainly: Late INa screening assay (automated whole cell patch clamp, PatchXpress). It counts as cell-based.
Conditions: not given
The gist of the method:
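Late sodium current through wild-type human hNav1.5 stably expressed in HEK293 cells (no beta subunits) was recorded by automated whole-cell patch clamp on a PatchXpress 7000A at 24-27° C. Late INa was induced with 10 μM Tefluthrin or 50 nM ATX II. Cells were stepped from −120 mV to −20 mV for 250 ms at 0.1 Hz, and percent block was normalized to current in Na-free extracellular solution.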
On the technique in general: The patch-clamp technique gives a direct electrical read-out from membranes.
Consider `FC(F)(F)Oc1ccc(-c2ccc3nnc(Oc4cccc(C(F)(F)F)c4)n3c2)cc1` [BHN-258], for which the “LateINa_1 uM (percent block of late INa)” value is on record as 80.1084%.

The same assay, now with this note: compound at 1 μM; HEK293 cells expressing hNav1.5; late INa generated with 10 μM Tefluthrin (or 50 nM ATX II); read-out: LateINa_1 uM (percent block of late INa).
`CC(OCc1nnc2ccc(-c3ccc(OC(F)(F)F)cc3)cn12)c1ccccc1` (centres unmarked) [BHN-246, 3-[(1-phenylethoxy)methyl]-6-[4-(trifluoromethoxy)phenyl][1,2,4]triazolo[4,3-a]pyridine]: the inhibition at 1 µM came to 85.8%.
For the compound `CC(OC(F)(F)c1nnc2ccc(-c3ccc(OC(F)(F)F)cc3)cn12)c1ccc(Cl)cc1Cl` (centres unmarked) [BHN-247, 3-{[1-(2,4-dichlorophenyl)ethoxy](difluoro)methyl}-6-[4-(trifluoromethoxy)phenyl][1,2,4]triazolo[4,3-a]pyridine], the inhibition at 1 µM was determined as 74.1%.
Turning to `OC1(COC(F)(F)c2nnc3ccc(-c4ccc(OC(F)(F)F)cc4)cn23)CCC1` [BHN-248, 1-[(difluoro{6-[4-(trifluoromethoxy)phenyl][1,2,4]triazolo[4,3-a]pyridin-3-yl}methoxy)methyl]cyclobutanol], the inhibition at 1 µM came to 50.2%.
In the case of `CC(OC(F)(F)c1cccnc1)c1nnc2ccc(-c3ccc(OC(F)(F)F)cc3)cn12` (centres unmarked) [BHN-249, 3-{1-[difluoro(pyridin-3-yl)methoxy]ethyl}-6-[4-(trifluoromethoxy)phenyl][1,2,4]triazolo[4,3-a]pyridine], the inhibition at 1 µM was 22.7%.
Take `FC(F)(F)Oc1ccc(-c2ccc3nnc(COCc4ccc(Cl)cc4Cl)n3c2)cc1` [BHN-250, 3-{[(2,4-dichlorobenzyl)oxy]methyl}-6-[4-(trifluoromethoxy)phenyl][1,2,4]triazolo[4,3-a]pyridine]: the inhibition at 1 µM is 79.1%.
As to `Cc1ccc(COCc2nnc3ccc(-c4ccc(OC(F)(F)F)cc4)cn23)c(C)c1` [BHN-251, 3-{[(2,4-dimethylbenzyl)oxy]methyl}-6-[4-(trifluoromethoxy)phenyl][1,2,4]triazolo[4,3-a]pyridine], the inhibition at 1 µM came to 75.8%.
On the same count and under the same terms, the same measure for `Cc1ccc(COCc2nnc3ccc(-c4ccc(OC(F)(F)F)cc4)cn23)nc1` [BHN-252, 3-{[(5-methylpyridin-2-yl)methoxy]methyl}-6-[4-(trifluoromethoxy)phenyl][1,2,4]triazolo[4,3-a]pyridine]: 20.6%; for `Fc1cc(-c2ccc3nnc(C(F)F)n3n2)ccc1OC(F)(F)F` [BHN-253, 3-(difluoromethyl)-6-[3-fluoro-4-(trifluoromethoxy)phenyl][1,2,4]triazolo[4,3-b]pyridazine]: 39.4%; for `N#CC1(c2ccc(-c3ccc4nnc(C(F)(F)F)n4c3)cc2)CCOCC1` [BHN-254, 4-{4-[3-(trifluoromethyl)[1,2,4]triazolo[4,3-a]pyridin-6-yl]phenyl}tetrahydro-2H-pyran-4-carbonitrile]: 24.6%.
Same read-out and setting: in the case of `CC(OCc1ccccn1)c1nnc2ccc(-c3ccc(OC(F)(F)F)cc3)cn12` (centres unmarked) [BHN-255, 3-[1-(pyridin-2-ylmethoxy)ethyl]-6-[4-(trifluoromethoxy)phenyl][1,2,4]triazolo[4,3-a]pyridine] it was 22.8%; in that of `CC(C)(C)OC(=O)N1CCC[C@H]1COC(F)(F)c1nnc2ccc(-c3ccc(OC(F)(F)F)cc3)cn12` [BHN-256, tert-butyl (2S)-2-[(difluoro{6-[4-(trifluoromethoxy)phenyl][1,2,4]triazolo[4,3-a]pyridin-3-yl}methoxy)methyl]pyrrolidine-1-carboxylate], 62.6%; in that of `FC(F)(F)Oc1ccc(-c2ccc3nnc(COC(F)(F)c4cccnc4)n3c2)cc1` [BHN-257, 3-{[difluoro(pyridin-3-yl)methoxy]methyl}-6-[4-(trifluoromethoxy)phenyl][1,2,4]triazolo[4,3-a]pyridine], 46.2%.
Same read-out and setting: in the case of `FC(F)(F)Oc1ccc(-c2ccc3nnc(C(F)(F)OCc4noc(C5CCC5)n4)n3c2)cc1` [BHN-259, 3-{[(5-cyclobutyl-1,2,4-oxadiazol-3-yl)methoxy](difluoro)methyl}-6-[4-(trifluoromethoxy)phenyl][1,2,4]triazolo[4,3-a]pyridine] it was 71.6%.
